Laboratory results published in patent publication US20170280720A1, “ARGININE […] INHIBITORS AND USES THEREOF” (EPIZYME, INC., priority 2014, published 2017).

Biological target: T1, human PRMT1 (Homo sapiens, UniProt Q99873)
T1 construct: GST-tagged PRMT1; made in house; host or cells: High Five insect cells (baculovirus, pFastBacI)
Assay: PRMT1 biochemical assay (3H-SAM Flashplate, peptide substrate)
Conditions: read-out: PRMT1_ IC50
Outline: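 FLAG-tagged full-length human PRMT1 (0.5 nM, GST-tagged, insect-cell expressed) preincubated 30 min at RT with compound, then biotinylated histone H4 36-50 peptide (20 nM) plus 200 nM 3H-SAM and 1.5 uM SAM in Bicine pH 7.6, 2% DMSO. 3H-methylated peptide captured on streptavidin Flashplate; IC50 from 3/4-parameter fit.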

T1 sequence (Q99873 with tags, fused parts or gaps): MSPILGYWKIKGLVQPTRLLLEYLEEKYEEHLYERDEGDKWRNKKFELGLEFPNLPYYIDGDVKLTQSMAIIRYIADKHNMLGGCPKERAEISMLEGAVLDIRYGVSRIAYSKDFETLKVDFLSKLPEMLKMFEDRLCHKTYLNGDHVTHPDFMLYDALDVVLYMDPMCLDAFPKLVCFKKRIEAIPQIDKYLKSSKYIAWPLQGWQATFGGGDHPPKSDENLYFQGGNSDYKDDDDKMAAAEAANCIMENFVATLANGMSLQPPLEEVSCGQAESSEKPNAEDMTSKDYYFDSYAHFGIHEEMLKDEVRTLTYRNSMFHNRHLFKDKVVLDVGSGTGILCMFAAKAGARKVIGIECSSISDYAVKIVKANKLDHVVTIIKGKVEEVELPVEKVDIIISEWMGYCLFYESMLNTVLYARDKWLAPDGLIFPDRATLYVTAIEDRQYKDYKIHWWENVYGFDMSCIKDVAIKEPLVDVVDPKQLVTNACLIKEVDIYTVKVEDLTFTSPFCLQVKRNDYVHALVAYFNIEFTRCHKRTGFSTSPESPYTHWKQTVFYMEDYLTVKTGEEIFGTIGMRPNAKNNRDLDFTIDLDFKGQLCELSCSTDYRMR

First: CN(CCN)Cc1cccc(-c2nc(NCc3nccs3)c3cnn(C4CC4)c3n2)c1 [Compound 1]
Second: CN(CCN)Cc1cccc(-c2nc(NCc3cccnc3)c3cnn(C4CC4)c3n2)c1 [Compound 40]
The IC50 of the first is 8.7-fold lower: 0.0193 µM for the first, 0.168 µM for the second.

Compared with `CC(C)n1ncc2c(C(=O)N[C@@H](C)c3ccccc3)cc(-c3cccc(CN(C)CCN)c3)cc21` [Compound 10], `CC(C)n1ncc2c(C(=O)N[C@@H](C)c3ccccc3)cc(-c3cccc(CN(C)CCN)c3)nc21` [Compound 136] is 19-fold higher in IC50: 0.0485 µM for the first, 0.934 µM for the second.

First: CNCCN(C)Cc1cccc(-c2cc(NC3CC3)c3cnn(C(C)C)c3n2)c1 [Compound 11]
Second: CC(C)n1ncc2c(NC3CC3)cc(-c3cccc(CN(C)CCN)c3)nc21 [Compound 41]
The IC50 of the first is 3.3-fold lower: 0.0516 µM for the first, 0.172 µM for the second. The first is the more potent here.

First: CNCCN(C)Cc1cccc(-c2cc(C(=O)N[C@@H](C)c3ccccc3)c3cn[nH]c3n2)c1 [Compound 12]
Second: CCn1ncc2c(C(=O)N[C@@H](C)c3ccccc3)cc(-c3cccc(CN(C)CCNC)c3)nc21 [Compound 33]
The IC50 of the first is 2.4-fold lower: 0.0594 µM for the first, 0.14 µM for the second.

Compared with `CC(C)n1cc2c(N)cc(-c3cccc(CN(C)CCN)c3)nc2n1` [Compound 13], `CNCCN(C)Cc1cccc(-c2cc(N)c3cnn(C(C)C)c3n2)c1` [Compound 151] is 25-fold higher in IC50: 0.0662 µM for the first, 1.66 µM for the second.

Compared with `CC(C)n1ncc2c(C(=O)NCc3ccccc3)cc(-c3cccc(CN(C)CCN)c3)cc21` [Compound 14], `CC(C)n1ncc2c(C(=O)NCc3ccccc3)cc(-c3cccc(CNCCN)c3)cc21` [Compound 134] is 13-fold higher in IC50: 0.0692 µM for the first, 0.925 µM for the second. The first is the more potent here.

First: Cc1c(C(=O)NCc2ccccc2)cc(-c2cccc(CN(C)CCN)c2)c2cn[nH]c12 [Compound 15]
Second: CC(C)n1ncc2c(C(=O)NCc3ccc(F)cc3)cc(-c3cccc(CN(C)CCN)c3)nc21 [Compound 25]
The IC50 of the first is 1.5-fold lower: 0.0696 µM for the first, 0.105 µM for the second. The first is the more potent here.

First: COc1ccc(Cn2cnc3ccc(-c4ccc(CN(C)CCN)cc4)cc32)cc1 [Compound 16]
Second: COc1ccc(Cn2cnc3ccc(-c4ccc(CNCCN)cc4)cc32)cc1 [Compound 132]
The IC50 of the first is 12-fold lower: 0.0696 µM for the first, 0.848 µM for the second. The first is the more potent here.

First: CNCCN(C)Cc1cccc(-c2nc(NCc3cc(C)nn3C)c3cnn(C4CC4)c3n2)c1 [Compound 17]
Second: CNCCN(C)Cc1cccc(-c2nc(NC3CCOCC3)c3cnn(C(C)(C)C)c3n2)c1 [Compound 27, N1-(3-(1-tert-butyl-4-(tetrahydro-2H-pyran-4-ylamino)-1H-pyrazolo[3,4-d]pyrimidin-6-yl)benzyl)-N1,N2-dimethylethane-1,2-diamine]
The IC50 of the first is 1.5-fold lower: 0.0697 µM for the first, 0.106 µM for the second. The first is the more potent here.

First: CN(CCN)Cc1cccc(-c2nc(NC3CCOCC3)c3cnn(C(C)(C)C)c3n2)c1 [Compound 18]
Second: CN(CCN)Cc1cccc(-c2cc(C(=O)NC3CCOCC3)c3cnn(C)c3n2)c1 [Compound 158]
The IC50 of the first is 41-fold lower: 0.0728 µM for the first, 3.02 µM for the second. The first is the more potent here.

First: CN(CCN)Cc1ccc(-c2ccc3ncn(-c4ccccc4)c3c2)cc1 [Compound 19]
Second: CC(C)n1cnc2cc(-c3ccc(CN(C)CCN)cc3)ccc21 [Compound 46]
The IC50 of the first is 2.4-fold lower: 0.0823 µM for the first, 0.196 µM for the second. The first is the more potent here.

Going from `CNCCN(C)Cc1cccc(-c2cc(Nc3ncc(C)s3)c3cnn(C(C)C)c3n2)c1` [Compound 20] to `CNCCN(C)Cc1cccc(-c2cc(NS(C)(=O)=O)c3cnn(C(C)C)c3n2)c1` [Compound 169], the IC50 rises from 0.085 µM to 10 µM (120-fold). The first is the more potent here.

`CNCCN(C)Cc1cccc(-c2cc(C(=O)NCC3CCOCC3)c3cnn(C4CCC4)c3n2)c1` [Compound 21] and `CNCCN(C)Cc1cccc(-c2cc(C(=O)NCC3CCOCC3)c3cnn(C4CC4)c3n2)c1` [Compound 26] are within 1.5-fold of each other in IC50: 0.089 µM for the first, 0.106 µM for the second.

First: Cc1nn(C(C)C)c2nc(-c3cccc(CN(C)CCN)c3)cc(N3CCOCC3)c12 [Compound 22, N1-(3-(1-isopropyl-3-methyl-4-morpholino-1H-pyrazolo[3,4-b]pyridin-6-yl)benzyl)-N1-methylethane-1,2-diamine]
Second: CC(C)n1ncc2c(N3CCOCC3)cc(-c3cccc(CN(C)CCNC4CC4)c3)nc21 [Compound 163]
The IC50 of the first is 46-fold lower: 0.0952 µM for the first, 4.41 µM for the second.

Compared with `CC(C)n1ncc2c(C(=O)N3CCc4ccccc4C3)cc(-c3cccc(CN(C)CCN)c3)nc21` [Compound 23], `CNCCN(C)Cc1cccc(-c2cc(C(=O)N3CCc4ccccc4C3)c3cnn(C(C)C)c3n2)c1` [Compound 42] is 1.9-fold higher in IC50: 0.0971 µM for the first, 0.185 µM for the second.

`CNCCN(C)Cc1cccc(-c2cc(C(=O)N(C)Cc3ccccc3)c3cnn(C(C)C)c3n2)c1` [Compound 24] and `CC(C)n1ncc2c(C(=O)N(C)Cc3ccccc3)cc(-c3cccc(CN(C)CCN)c3)nc21` [Compound 31] are within 1.5-fold of each other in IC50: 0.0974 µM for the first, 0.128 µM for the second.

`CNCCN(C)Cc1cccc(-c2ccc3ncn(C(C)C)c3c2)c1` [Compound 28] and `CNCCN(C)Cc1cccc(-c2ccc3c(c2)ncn3C(C)C)c1` [Compound 36] are within 1.5-fold of each other in IC50: 0.114 µM for the first, 0.153 µM for the second.

Compared with `CNCCN(C)Cc1cccc(-c2cc(C(=O)NC3CCOCC3)c3cnn(C4CCC4)c3n2)c1` [Compound 29], `CN(CCN)Cc1cccc(-c2cc(C(=O)NC3CCOCC3)c3cnn(C4CC4)c3n2)c1` [Compound 142] is 9.7-fold higher in IC50: 0.114 µM for the first, 1.11 µM for the second. The first is the more potent here.

`CNCCN(C)Cc1cccc(-c2ccc3ncn(C4CCOCC4)c3c2)c1` [Compound 30] and `CNCCN(C)Cc1cccc(-c2ccc3c(c2)ncn3CCOC)c1` [Compound 34] are within 1.5-fold of each other in IC50: 0.118 µM for the first, 0.145 µM for the second.

Going from `CC(C)n1cnc2cc(-c3cccc(CN(C)CCN)c3)ccc21` [Compound 32] to `CC(C)n1cnc2ccc(-c3ccc(CNCCN)cc3)cc21` [Compound 166], the IC50 rises from 0.128 µM to 5.09 µM (40-fold).

`CNCCN(C)Cc1cccc(-c2ccc3cn(Cc4ccccc4)nc3n2)c1` [Compound 35] and `CNCCN(C)Cc1cccc(-c2cc(Oc3ccccc3)c3cnn(C(C)C)c3n2)c1` [Compound 45] are within 1.5-fold of each other in IC50: 0.152 µM for the first, 0.194 µM for the second.

`CC(C)n1ncc2c(C(=O)NCc3c(F)cccc3F)cc(-c3cccc(CN(C)CCN)c3)nc21` [Compound 37] and `CNCCN(C)Cc1cccc(-c2cc(C(=O)NCc3c(F)cccc3F)c3cnn(C(C)C)c3n2)c1` [Compound 47] are within 1.5-fold of each other in IC50: 0.154 µM for the first, 0.209 µM for the second.

First: CNCCN(C)Cc1cccc(-c2cc(C(=O)NCc3ccccc3F)c3cnn(C(C)C)c3n2)c1 [Compound 38]
Second: CC(C)n1ncc2c(C(=O)NCc3ccccc3F)cc(-c3cccc(CNCCN)c3)nc21 [Compound 159]
The IC50 of the first is 20-fold lower: 0.159 µM for the first, 3.14 µM for the second. The first is the more potent here.

First: CNCCN(C)Cc1cccc(-c2cnc3c(c2)c(Br)nn3CC2CCOCC2)c1 [Compound 39]
Second: CNCCN(C)Cc1cccc(-c2cc(NC(=O)NC3CCOCC3)c3cnn(C(C)C)c3n2)c1 [Compound 133]
The IC50 of the first is 5.3-fold lower: 0.164 µM for the first, 0.866 µM for the second.

Compared with `CC(C)n1ncc2c(C(=O)N3CCCCC3)cc(-c3cccc(CN(C)CCN)c3)nc21` [Compound 43], `CC(C)n1ncc2c(C(=O)N3CCCCC3)cc(-c3cccc(CNCCN)c3)nc21` [Compound 153] is 9.1-fold higher in IC50: 0.188 µM for the first, 1.71 µM for the second. The first is the more potent here.

Compared with `CNCCN(C)Cc1cccc(-c2cc(C(=O)N[C@@H](C)c3ccccc3)c3cnn(C(C)C)c3n2)c1` [Compound 44], `CC(C)n1ncc2c(C(=O)N[C@@H](C)c3ccccc3)cc(-c3cccc(CNCCN)c3)nc21` [Compound 160] is 22-fold higher in IC50: 0.189 µM for the first, 4.1 µM for the second.

`CNC(=O)Nc1cc(-c2cccc(CN(C)CCN)c2)nc2c1cnn2C(C)C` [Compound 126] and `CNCCN(C)Cc1cccc(-c2cc(NC(=O)NC)c3cnn(C(C)C)c3n2)c1` [Compound 138] are within 1.5-fold of each other in IC50: 0.783 µM for the first, 1.04 µM for the second.

First: CCC(=O)c1cc(-c2cccc(CN(C)CCNC)c2)nc2c1cnn2C(C)C [Compound 128]
Second: CNCCN(C)Cc1cccc(-c2cc(NS(C)(=O)=O)c3cnn(C(C)C)c3n2)c1 [Compound 170]
The IC50 of the first is 12-fold lower: 0.808 µM for the first, 10 µM for the second. The first is the more potent here.

Compared with `CS(=O)(=O)N1CCC(Cn2cnc3ccc(-c4ccc(CNCCN)cc4)cc32)CC1` [Compound 129], `NCCNCc1ccc(-c2ccc3ncn(C4CCNCC4)c3c2)cc1` [Compound 157] is 3-fold higher in IC50: 0.821 µM for the first, 2.43 µM for the second.

Going from `CNCCN(C)Cc1cc(-c2cc(C(=O)NC3CCOCC3)c3cnn(C(C)C)c3n2)ccc1F` [Compound 130] to `CC(C)n1ncc2c(C(=O)NC3CCOCC3)cc(-c3cccc(CN(C)CCN)c3)nc21` [Compound 148], the IC50 rises from 0.833 µM to 1.48 µM (1.8-fold). The first is the more potent here.

`Cc1ccc(-n2cnc3cc(-c4ccc(CNCCN)cc4)ccc32)cc1` [Compound 131] and `Cc1cccc(CCn2cnc3ccc(-c4ccc(CNCCN)cc4)cc32)c1` [Compound 143] are within 1.5-fold of each other in IC50: 0.841 µM for the first, 1.11 µM for the second.

`COc1cccc(Cc2nc3ccc(-c4ccc(CNCCN)cc4)cc3n2C(C)C)c1` [Compound 135] and `N#Cc1cccc(Cn2cnc3ccc(-c4ccc(CNCCN)cc4)cc32)c1` [Compound 145] are within 1.5-fold of each other in IC50: 0.932 µM for the first, 1.27 µM for the second.

Compared with `CNCCN(C)Cc1cccc(-c2cc(C(=O)NCc3cnn(C)c3C)c3cnn(C(C)C)c3n2)c1` [Compound 137], `CCS(=O)(=O)Nc1cc(-c2cccc(CN(C)CCNC)c2)nc2c1cnn2C(C)C` [Compound 161] is 4.2-fold higher in IC50: 0.985 µM for the first, 4.17 µM for the second.

Compared with `CNCCN(C)Cc1cccc(-c2cc(NS(=O)(=O)N(C)C)c3cnn(C(C)C)c3n2)c1` [Compound 139], `CNCCN(C)Cc1cccc(-c2cc(NS(=O)(=O)C(F)(F)F)c3cnn(C(C)C)c3n2)c1` [Compound 164] is 4.3-fold higher in IC50: 1.05 µM for the first, 4.5 µM for the second. The first is the more potent here.

Going from `Cc1cc2cc(-c3ccc(CNCCN)cc3)ccc2[nH]1` [Compound 141] to `NCCNCc1ccc(-c2cnc3c(c2)CCC(=O)N3)cc1` [Compound 156], the IC50 rises from 1.11 µM to 2.41 µM (2.2-fold). The first is the more potent here.

Going from `CN(CCN)Cc1cccc(-c2cc(C(=O)NC3CCOCC3)c3cnn(CC(F)(F)F)c3n2)c1` [Compound 144] to `CC(C)n1ncc2c(C(=O)NCC3CCOCC3)cc(-c3cccc(CN(C)CCNC4CC4)c3)nc21` [Compound 167], the IC50 rises from 1.2 µM to 5.89 µM (4.9-fold).

`CC(C)n1ncc2c(C(=O)NCc3ccncc3)cc(-c3cccc(CNCCN)c3)nc21` [Compound 150] and `CC(C)n1ncc2c(C(=O)NCc3ccccc3)cc(-c3cccc(CNCCN)c3)nc21` [Compound 155] are within 1.5-fold of each other in IC50: 1.6 µM for the first, 2.3 µM for the second.

First: CNCCN(C)Cc1cccc(-c2cc(OCC(F)(F)F)c3cnn(C(C)C)c3n2)c1 [Compound 154]
Second: CC(C)n1ncc2c(C(=O)NCC3CCN(C)CC3)cc(-c3cccc(CN(C)CCN(C)C)c3)nc21 [Compound 162]
The IC50 of the first is 1.9-fold lower: 2.29 µM for the first, 4.32 µM for the second. The first is the more potent here.

Molecule `CC(C)n1ncc2c(C(=O)NCc3c(F)cccc3F)cc(-c3cccc(CNCCN)c3)nc21` [Compound 168] has an IC50 of 7.81 µM.
